Reference: patent US8901357B2, “Dibenzoyl peroxide derivatives, preparation method thereof and cosmetic or dermatological compositions containing same” (Galderma Research & Development, priority 2009, dated 2014)
Converted amounts (≈) assume the structure as drawn.

Test system: Propionibacterium acnes
Assay: Sensitivity of peroxides versus dibenzoyl peroxide on Propionibacterium acnes: MIC, dilution method in agar medium (CLSI M11A7)
Format: cell-based
Settings: Cutibacterium acnes, 48 h
[1] = P. acnes strain 998, read after 48 hours anaerobic incubation
[2] = P. acnes strain 1044, read after 48 hours anaerobic incubation
[3] = P. acnes strain 1045, read after 48 hours anaerobic incubation
[4] = P. acnes strain 1201, read after 48 hours anaerobic incubation
[5] = P. acnes strain 3069, read after 48 hours anaerobic incubation
[6] = P. acnes strain CSS 2913, read after 48 hours anaerobic incubation
[7] = P. acnes strain CSS 2971, read after 48 hours anaerobic incubation
[8] = P. acnes strain CSS 3288, read after 48 hours anaerobic incubation
[9] = P. acnes strain UAA 2281, read after 48 hours anaerobic incubation
[10] = P. acnes strain UAA 2285, read after 48 hours anaerobic incubation

Row | Structure (SMILES) | MIC [1] | MIC [2] | MIC [3] | MIC [4] | MIC [5] | MIC [6] | MIC [7] | MIC [8] | MIC [9] | MIC [10]
1 | O=C(OOC(=O)c1ccccc1)c1ccccc1 [Benzoyl peroxide] | 640 µg/mL (≈ 2640 µM) | 640 µg/mL (≈ 2640 µM) | 640 µg/mL (≈ 2640 µM) | 640 µg/mL (≈ 2640 µM) | 640 µg/mL (≈ 2640 µM) | 640 µg/mL (≈ 2640 µM) | 640 µg/mL (≈ 2640 µM) | 640 µg/mL (≈ 2640 µM) | 640 µg/mL (≈ 2640 µM) | 640 µg/mL (≈ 2640 µM)
2 | CCCCCCCC(=O)c1ccc(OC(C)=O)c(C(=O)OOC(=O)c2ccccc2)c1 [Example 1, (2-acetoxy-5-octanoylbenzoyl)benzoyl peroxide] | 1280 µg/mL (≈ 3000 µM) | 320 µg/mL (≈ 750 µM) | 320 µg/mL (≈ 750 µM) | 320 µg/mL (≈ 750 µM) | 1280 µg/mL (≈ 3000 µM) | 320 µg/mL (≈ 750 µM) | 320 µg/mL (≈ 750 µM) | 320 µg/mL (≈ 750 µM) | 320 µg/mL (≈ 750 µM) | 320 µg/mL (≈ 750 µM)
